Earlier results on two compounds are cited in PMC4021529 (British Journal of Cancer, 2014).

SMILES strings stand for the structures. Where two headings read alike, the source gives them in different places.

In this data set the test system is advanced solid tumours. Conditions: phase I trial, advanced solid malignancies, cited from earlier work.

As for `C[C@@H](Oc1cc(-n2cnc3ccc(CN4CCN(C)CC4)cc32)sc1C(N)=O)c1ccccc1C(F)(F)F` [GSK461364], the objective responses entry (ref Olmos et al, 2011) is “no objective responses”.
With `COc1ccc(S(=O)(=O)N(C(C)=O)c2ccccc2/C=C/c2cc[n+]([O-])cc2)cc1` [HMN-214], the objective responses result (ref Garland et al, 2006) is “no objective responses”.
